The source made the active and inactive calls. The rule behind the calls is not given here.
Tests used:
[1] = test system: HMC1; experiment: Inhibition of FCepsilonRI expression in human HMC1 cells at 50 to 100 uM after 72 hrs by flow cytometry; assay type: functional, cell-based
[2] = test system: HMC1; experiment: Inhibition of FCepsilonRI expression in human HMC1 cells at 100 uM after 72 hrs by flow cytometry; assay type: functional, cell-based
[3] = Cytotoxicity against human HMC1 cells assessed induction of morphological changes at 50 uM; conditions: hmc1, 50 µM
[4] = Cytotoxicity against human HMC1 cells assessed induction of cell death at 50 uM; assay type: cell-based; conditions: hmc1, 50 µM
[5] = test system: HMC1; experiment: Inhibition of FCepsilonRI alpha subunit mRNA expression in human HMC1 cells at 50 uM after 36 hrs by RT-PCR analysis; assay type: functional, cell-based
[6] = test system: HMC1; experiment: Inhibition of FCepsilonRI beta subunit mRNA expression in human HMC1 cells at 50 uM after 36 hrs by RT-PCR analysis; assay type: functional, cell-based
[7] = test system: HMC1; experiment: Inhibition of FCepsilonRI gamma subunit mRNA expression in human HMC1 cells at 50 uM after 36 hrs by RT-PCR analysis; assay type: functional, cell-based

SMILES: COc1c(O)cc(C(=O)O[C@@H]2Cc3c(O)cc(O)cc3O[C@@H]2c2cc(O)c(O)c(O)c2)cc1O
- inhibition [1]: inactive
- inhibition [2]: inactive

SMILES: COc1cc([C@H]2Oc3cc(O)cc(O)c3C[C@H]2OC(=O)c2cc(O)c(O)c(O)c2)cc(O)c1O
- inhibition [1]: inactive
- inhibition [2]: inactive

SMILES: COc1c(O)cc([C@H]2Oc3cc(O)cc(O)c3C[C@H]2OC(=O)c2cc(O)c(O)c(O)c2)cc1O
- inhibition [1]: inactive
- inhibition [2]: inactive

SMILES: Oc1cc(O)c2cc(O)c(-c3ccc(O)c(O)c3)[o+]c2c1 [CYANIDIN]
- Activity [3]: Toxic

SMILES: O=c1cc(-c2ccc(O)cc2)oc2cc(O)cc(O)c12 [APIGENIN]
- Activity [3]: Toxic

SMILES: O=c1cc(-c2ccc(O)cc2)oc2cc(O)c(O)c(O)c12 [SCUTELLAREIN]
- Activity [4]: Toxic

SMILES: Oc1cc(O)c2cc(O)c(-c3cc(O)c(O)c(O)c3)[o+]c2c1
- inhibition [1]: Active

SMILES: O=c1cc(-c2cc(O)c(O)c(O)c2)oc2cc(O)cc(O)c12
- inhibition [1]: Active

SMILES: O=c1cc(-c2ccc(O)c(O)c2)oc2cc(O)cc(O)c12 [LUTEOLIN]
- Activity [3]: Toxic

SMILES: O=c1cc(-c2ccccc2)oc2cc(O)c(O)c(O)c12 [BAICALEIN]
- Activity [3]: Toxic

SMILES: COc1cc(C(=O)O[C@@H]2Cc3c(O)cc(O)cc3O[C@@H]2c2cc(O)c(O)c(O)c2)cc(O)c1O
- inhibition [1]: inactive
- inhibition [2]: inactive

SMILES: O=c1cc(-c2ccc(O)c(O)c2)oc2c([C@@H]3O[C@H](CO)[C@@H](O)[C@H](O)[C@H]3O)c(O)cc(O)c12 [ORIENTIN]
- Activity [3]: Toxic

SMILES: COc1c(O)cc(O)c2c(=O)cc(-c3ccccc3)oc12 [WOGONIN]
- Activity [3]: Toxic

SMILES: O=C(O[C@@H]1Cc2c(O)cc(O)cc2O[C@H]1c1cc(O)c(O)c(O)c1)c1cc(O)c(O)c(O)c1
- inhibition [2]: Active

SMILES: Oc1cc(O)c2c(c1)O[C@H](c1ccc(O)c(O)c1)[C@H](O)C2
- inhibition [2]: Active

SMILES: COc1cc(-c2[o+]c3cc(O)cc(O)c3cc2O)cc(OC)c1O [MALVIDIN]
- Activity [3]: Toxic

SMILES: O=C(O[C@@H]1Cc2c(O)cc(O)cc2O[C@@H]1c1cc(O)c(O)c(O)c1)c1cc(O)c(O)c(O)c1
- inhibition [5]: inactive
- inhibition [6]: inactive
- inhibition [7]: Active

SMILES: O=C(O[C@@H]1Cc2c(O)cc(O)cc2O[C@@H]1c1ccc(O)c(O)c1)c1cc(O)c(O)c(O)c1
- inhibition [2]: Active

SMILES: O=c1cc(-c2ccccc2)oc2c(O)c(O)cc(O)c12 [NORWOGONIN]
- Activity [4]: Toxic

From ChEMBL document CHEMBL1156298, “New inhibitors for expression of IgE receptor on human mast cell” (Bioorg Med Chem Lett, 2010)
